According to patent publication US20230067064A1, “METHODS AND COMPOSITIONS FOR MODULATING SPLICING” (SkyHawk Therapeutics, Inc., priority 2019, published 2023):
Where two headings read alike, the source gives them in different places.

What was measured:
SMN protein = SMN protein assay, Mesoscale Discovery (MSD); format: cell-based, human; details: SMA patient fibroblasts (GM03813), 48 hours, average, read-out: SMN2 Potency - Protein: Protein FL EC50 (average)
Procedure: Compounds are tested on spinal muscular atrophy (SMA) patient fibroblasts (GM03813, Coriell) at doses ranging from 2.5 μM to 0.6 nM. 7000 cells/well are seeded in 96-well plates. Compounds are incubated for 48 hours and the cells were lysed with 100 μL of lysis buffer. 20 μL of lysate is used for SMN protein measurement by Mesoscale Discovery (MSD) assay developed by PharmOptima (Michigan). A standard curve prepared with SMN protein ranging from 1 μg/ml to 19.5 pg/ml is used in each MSD plate to calculate the absolute SMN protein amount in each sample.

[1] = test system: SMN FL and SMN Δ7 mRNA, spinal muscular atrophy (SMA) patient fibroblasts (GM03813); test: Quantitative splicing assay (SMN); format: cell-based, human; details: 24 h, average; for IC50: read-out: SMN2 Potency - Splicing: Splicing D7 IC50 (average); for EC50: read-out: SMN2 Potency - Splicing: Splicing FL EC50 (average)
Procedure: Spinal muscular atrophy (SMA) patient fibroblasts (GM03813, Coriell) are plated in 96-well plates at 50,000 cells/well. […] Treated cells are lysed and cDNA synthesized using the Fast Advanced Cells-to-Ct kit (Thermofisher A35378) according to the manufacturer's instructions. 2 μL of each cDNA are used in qPCR reactions. […] Reactions are run in a Quant Studio 6 qPCR instrument with default settings.

mHTT protein = mHTT protein assay, 2B7-MW1 Mesoscale Discovery (MSD); format: cell-based, human; details: GM04724 lymphoblast cells, 48 hours, 2B7-MW1 MSD; average; read-out: HTT Potency - Protein & Cytotoxicity: EC50 mHTT (average)
Procedure: Compounds are tested on GM04724 (CAG 70/20) Huntington's disease patient lymphoblast cells at doses ranging from 10 μM to 0.6 nM. 4,500 cells/well are seeded in 384 well plates. One plate replica is carried out for parallel viability testing by CellTiter Glo (CTG). Compounds are incubated for 48 hours. mHTT protein levels are assessed by the 2B7-MW1 assay via Mesoscale Discovery (MSD) as previously reported (Macdonald et al., 2014). The antibody pair is comprised of previously characterized monoclonals (2B7 and MW1) interrogating two regions for HTT conformation and biological properties: the N17 domain and the polyQ domain (Baldo et al., 2012; Ko et., 2001). 2B7-MW1 is dependent on subject/animal specific levels of HTT at the time of treatment. 2B7-MW1 is dependent on polyQ expansion (e.g., the higher the expansion the higher the signal) and on mHTT size (e.g., a similar polyQ will give higher signal with smaller HTT size). The viability readout is carried out by CTG according to the manufacturer's instructions. The results are show in Table A-10.

[2] = test system: MDR1-MDCK cell monolayers; test: MDCK-MDR1 permeability assay, blood-brain-barrier (BBB) penetration potential; format: in vitro ADME; details: for General MDCK-MDR1: Efflux: efflux ratio
Procedure: (§1) Each determination is performed in duplicate. […] Analytical conditions are outlined below.
(§2) Papp=(dCr/dt)×Vr/(A×CA) (1)

[3] = test system: cryptic exon within intron 49 of the Huntingtin (HTT) transcripts, GM04724 (CAG 70/20) Huntington's disease patient lymphoblasts; test: Quantitative splicing assay (HTT); format: cell-based, human; details: average
Procedure: GM04724 (CAG 70/20) Huntington's disease patient lymphoblasts (Coriell) are plated in 96-well v-bottom plates at 50,000 cells/well. Immediately after plating, cells are dosed with compound for 24 h at concentrations ranging from 2.5 uM to 0.15 nM (0.1% DMSO). Treated cells are lysed and cDNA synthesized using the Fast Advanced Cells-to-Ct kit (Thermofisher A35378) according to the manufacturer's instructions. 2 uL of each cDNA are used in qPCR reactions to confirm the compound-induced inclusion of a cryptic exon within intron 49 of the Huntingtin (HTT) transcripts. The qPCR reactions are prepared in 384-well plates in 10 uL volume, using TaqMan™ Fast Advanced Master Mix [ThermoFisher; 4444965] with primers and probes shown in the table below. Reactions are run in a Quant Studio 6 qPCR instrument with default settings.

MDR1 = test: MDCK-MDR1 permeability assay, blood-brain-barrier (BBB) penetration potential; format: in vitro ADME; details: dog, MDCK-MDR1, pH 7.4
Procedure: as §1, §2

[4] = read-out: HTT Potency - Splicing: E49-50 EC50 (average)
[5] = read-out: HTT Potency - Splicing: E49b EC50 (average)
[6] = dog, MDCK-MDR1, 120 min, 5 μM, pH 7.4

Structure (SMILES)	EC50 (SMN protein)	IC50 [1]	EC50 [1]	EC50 (mHTT protein)	General MDCK-MDR1: % Recov A-B ([2]; A-B direction)	General MDCK-MDR1: % Recov B-A ([2]; B-A direction)	General MDCK-MDR1: Efflux [2]	EC50 [3, 4]	EC50 [3, 5]	General MDCK-MDR1: % Recov A-B [2, 6]	General MDCK-MDR1: % Recov B-A [2, 6]	Papp A→B at 120 min, 5 μM (MDR1)	Papp B→A at 120 min, 5 μM (MDR1)	efflux ratio at 120 min, 5 μM (MDR1)
C[C@]12CC[C@H](C[C@@H](Oc3ccc(-c4ccc(-n5ccnc5)cc4O)nn3)C1)N2 (single isomer, unassigned; ent1) [303-Ent1]	0.01 to 15 nM	16 to 50 nM	101 to 500 nM	0.01 to 15 nM	90%	90%	40	16 to 50 nM	16 to 50 nM					
CN(c1ccc(-c2ccc(-n3ccnc3)cc2O)nn1)[C@@H]1C[C@H]2CC[C@@](C)(C1)N2 (single isomer, unassigned; ent1) [304-Ent1]	0.01 to 15 nM			0.01 to 15 nM	94%	90%	137	0.01 to 15 nM	0.01 to 15 nM					
C[C@]12CC[C@H](C[C@@H](Oc3ccc(-c4ccc(-c5cn[nH]c5)cc4O)nn3)C1)N2 (single isomer, unassigned; ent1) [309-Ent1]	0.01 to 15 nM	0.01 to 15 nM		0.01 to 15 nM	93%	93%	68	0.01 to 15 nM	0.01 to 15 nM					
COc1cc(-c2ccc(-c3ccc(N(C)[C@@H]4C[C@H]5CC[C@@](C)(C4)N5)nn3)c(O)c2)cnn1 (single isomer, unassigned; ent1) [310-Ent1]	501 to 10000 nM			0.01 to 15 nM	94%	89%	130							
COc1cc(-c2ccc(-c3ccc(N(C)[C@@H]4C[C@H]5CCC[C@@](C)(C4)N5)nn3)c(O)c2)cnn1 (single isomer, unassigned; ent1) [311-Ent1]	16 to 50 nM			0.01 to 15 nM	93%	96%	180							
COCC12CCC(CC(N(C)c3ccc(-c4cc(F)c(-n5ccnc5)cc4O)nn3)C1)N2 (single isomer, unassigned; ent1) [315-Ent1]	0.01 to 15 nM	0.01 to 15 nM	0.01 to 15 nM	0.01 to 15 nM	109%	108%	103	0.01 to 15 nM	0.01 to 15 nM					
COCC12CCCC(CC(Oc3ccc(-c4ccc(-c5cnn(C)c5)cc4O)nn3)C1)N2 (single isomer, unassigned; ent1) [316-Ent1]	0.01 to 15 nM	16 to 50 nM	51 to 100 nM	0.01 to 15 nM	84%	96%	43	16 to 50 nM	16 to 50 nM					
CN(c1ccc(-c2ccc(-c3cnn(C)c3)cc2O)nn1)C1CC2CCC(C)(N2)C1F (single isomer, unassigned; ent1) [317-Ent1]	0.01 to 15 nM	0.01 to 15 nM	0.01 to 15 nM	0.01 to 15 nM	73%	98%	17	0.01 to 15 nM	0.01 to 15 nM					
CC12CCC(CC(Oc3ccc(-c4ccc(-n5ccnc5)cc4O)nn3)C1)N2 (single isomer, unassigned; ent2) [303-Ent2]	0.01 to 15 nM	16 to 50 nM	16 to 50 nM	0.01 to 15 nM	86%	88%	62	0.01 to 15 nM	0.01 to 15 nM					
CN(c1ccc(-c2ccc(-n3ccnc3)cc2O)nn1)C1CC2CCC(C)(C1)N2 (single isomer, unassigned; ent2) [304-Ent2]	0.01 to 15 nM			0.01 to 15 nM	87%	83%	109	0.01 to 15 nM	0.01 to 15 nM					
CC12CCC(CC(Oc3ccc(-c4ccc(-c5cn[nH]c5)cc4O)nn3)C1)N2 (single isomer, unassigned; ent2) [309-Ent2]				0.01 to 15 nM	91%	86%	50	0.01 to 15 nM	0.01 to 15 nM					
COc1cc(-c2ccc(-c3ccc(N(C)C4CC5CCC(C)(C4)N5)nn3)c(O)c2)cnn1 (single isomer, unassigned; ent2) [310-Ent2]	16 to 50 nM			0.01 to 15 nM	89%	80%	133							
COc1cc(-c2ccc(-c3ccc(N(C)C4CC5CCCC(C)(C4)N5)nn3)c(O)c2)cnn1 (single isomer, unassigned; ent2) [311-Ent2]	16 to 50 nM			0.01 to 15 nM	84%	83%	137							
COCC12CCC(CC(N(C)c3ccc(-c4cc(F)c(-n5ccnc5)cc4O)nn3)C1)N2 (single isomer, unassigned; ent2) [315-Ent2]				0.01 to 15 nM	104%	107%	117	0.01 to 15 nM	0.01 to 15 nM					
COCC12CCCC(CC(Oc3ccc(-c4ccc(-c5cnn(C)c5)cc4O)nn3)C1)N2 (single isomer, unassigned; ent2) [316-Ent2]	0.01 to 15 nM	16 to 50 nM	51 to 100 nM	16 to 50 nM	77%	106%	40	16 to 50 nM	16 to 50 nM					
CN(c1ccc(-c2ccc(-c3cnn(C)c3)cc2O)nn1)C1CC2(C)CCC(N2)C1F (single isomer, unassigned; ent2) [318-Ent2]	0.01 to 15 nM			0.01 to 15 nM										
CN1C2CC[C@@H]1C[C@@H](Oc1ccc(-c3ccc(-n4ccnc4)cc3O)nn1)C2 [compound 301]	501 to 10000 nM									83%	91%	2.34 ×10⁻⁶ cm/s	48.2 ×10⁻⁶ cm/s	21
CN1[C@@H]2CCC[C@H]1C[C@H](Oc1ccc(-c3ccc(-n4ccnc4)cc3O)nn1)C2 [compound 302]	51 to 100 nM			501 to 10000 nM						90%	110%	3.09 ×10⁻⁶ cm/s	55.8 ×10⁻⁶ cm/s	18
CN1[C@@H]2CCC[C@H]1C[C@H](Oc1ccc(-c3ccc(-c4cn[nH]c4)cc3O)nn1)C2 [compound 305]	501 to 10000 nM			51 to 100 nM										
CN1[C@@H]2CC[C@H]1C[C@H](Oc1ccc(-c3ccc(-c4cn[nH]c4)cc3O)nn1)C2 [compound 306]	501 to 10000 nM			101 to 500 nM						95%	102%	1.19 ×10⁻⁶ cm/s	55.4 ×10⁻⁶ cm/s	47
